Assay results from US11285127B2, “Compositions and methods for lowering triglycerides without raising LDL-C levels in a subject on concomitant statin therapy” (Amarin Pharmaceuticals Ireland Limited, priority 2013, dated 2022).

How the values were obtained:
[1] = test system: patients with fasting triglyceride levels >200 mg/dl and <500 mg/dl despite statin therapy; test: 12-week study: glucose metabolism (FPG, HbA1c, insulin, HOMA-IR); type: in vivo, human; conditions: MITT; for Fasting plasma glucose Percent change from Baseline Median (IQR) / HOMA-IR Percent change from Baseline Median (IQR) / HbAlc Percent change from Baseline Median (IQR) / Insulin Percent change from Baseline Median (IQR): Week 12 EP; for Fasting plasma glucose Percent change from Baseline Median (IQR) / HOMA-IR Percent change from Baseline Median (IQR) / HbAlc Percent change from Baseline Median (IQR) / Insulin Percent change from Baseline Median (IQR) / Fasting plasma glucose Difference from placebo Estimated median / HOMA-IR Difference from placebo Estimated median / HbAlc Difference from placebo Estimated median / Insulin Difference from placebo Estimated median: ANCOVA; for Fasting plasma glucose Difference from placebo Estimated median / HOMA-IR Difference from placebo Estimated median / HbAlc Difference from placebo Estimated median / Insulin Difference from placebo Estimated median: change from baseline to Week 12 EP
Text: (§1) Parameters (a)-(z) can be measured in accordance with any clinically acceptable methodology. For example, triglycerides, total cholesterol, HDL-C and fasting blood sugar can be sample from serum and analyzed using standard photometry techniques. VLDL-TG, LDL-C and VLDL-C can be calculated or determined using serum lipoprotein fractionation by preparative ultracentrifugation and subsequent quantitative analysis by refractometry or by analytic ultracentrifugal methodology. Apo A1, Apo B and hsCRP can be determined from serum using standard nephelometry techniques. Lipoprotein (a) can be determined from serum using standard turbidimetric immunoassay techniques. LDL particle number and particle size can be determined using nuclear magnetic resonance (NMR) spectrometry. Remnants lipoproteins and LDL-phospholipase A2 can be determined from EDTA plasma or serum and serum, respectively, using enzymatic immunoseparation techniques. Oxidized LDL, intercellular adhesion molecule-1 and interleukin-2 levels can be determined from serum using standard enzyme immunoassay techniques. These techniques are described in detail in standard textbooks, for example Tietz Fundamentals of Clinical Chemistry, 6th Ed. (Burtis, Ashwood and Borter Eds.), WB Saunders Company.
(§2) A multi-center, placebo-controlled, randomized, double-blind, 12-week study was performed to evaluate the efficacy and safety of >96% E-EPA in patients with fasting triglyceride levels >200 mg/dl and <500 mg/dl despite statin therapy (the mean of two qualifying entry values needed to be >185 mg/dl and at least one of the values needed to be >200 mg/dl). The primary objective of the study was to determine the efficacy of >96% E-EPA 2 g daily and 4 g daily, compared to placebo, in lowering fasting TG levels in patients with high risk for cardiovascular disease and with fasting TG levels 200 mg/dl and <500 mg/dl, despite treatment to LDL-C goal on statin therapy.
(§3) The secondary objectives of this study were the following: • 1. To determine the safety and tolerability of >96% E-EPA 2 g daily and 4 g daily; • 2. To determine the effect of >96% E-EPA on lipid and apolipoprotein profiles including total cholesterol (TC), non-high-density lipoprotein cholesterol (non-HDL-C), low density lipoprotein cholesterol (LDL-C), high density lipoprotein cholesterol (HDL-C), and […]; • 3. To determine the effect of >96% E-EPA on lipoprotein associated phospholipase A2 (Lp-PLA2) from baseline to week 12; • 4. To determine the effect of >96% E-EPA on low-density lipoprotein (LDL) particle number and size; • 5. To determine the effect of >96% E-EPA on oxidized LDL; • 6. To determine the effect of >96% E-EPA on fasting plasma glucose (FPG) and hemoglobin A1c (HbA1c); • 7. To determine the effect of >96% E-EPA on insulin resistance; • 8. To determine the effect of >96% E-EPA on high-sensitivity C-reactive protein (hsCRP); • 9. To determine the effects of >96% E-EPA 2 g daily and 4 g daily on the incorporation of fatty acids into red blood cell membranes and into plasma phospholipids; • 10. To explore the relationship between baseline fasting TG levels and the reduction in fasting TG levels; and • 11. To explore the relationship between changes of fatty acid concentrations in plasma and red blood cell membranes, and the reduction in fasting TG levels.
(§4) The primary efficacy variable for the double-blind treatment period was percent change in TG from baseline to Week 12 endpoint. […]

[2] = test system: patients with fasting triglyceride levels >200 mg/dl and <500 mg/dl despite statin therapy; test: 12-week study: inflammatory biomarkers (ICAM-1, interleukin, PAI-1, hsCRP); type: in vivo, human; conditions: MITT; for ICAM-1, Difference from placebo, Estimated median / IL-6, Difference from placebo, Estimated median / PAI-1, Difference from placebo, Estimated median / hsCRP, Difference from placebo, Estimated median: Week 12; for hsCRP, Difference from placebo, Estimated median: post-hoc, median percent change from baseline; for ICAM-1, Week 12 EP Median (IQR) / IL-6, Week 12 EP Median (IQR) / PAI-1, Week 12 EP Median (IQR) / hsCRP, Week 12 EP Median (IQR): Week 12 endpoint (LOCF); for hsCRP, Week 12 EP Median (IQR) / hsCRP, Median % Chg from BL (IQR): post-hoc analysis; for ICAM-1, change from Baseline, Median (IQR) / IL-6, change from Baseline, Median (IQR) / PAI-1, change from Baseline, Median (IQR) / hsCRP, Median % Chg from BL (IQR): baseline to Week 12
Text: as §1, §2, §3, §4

[3] = AMR101 2 g/d + statin vs placebo
[4] = AMR101 4 g/d + statin vs placebo

CC/C=C\C/C=C\C/C=C\C/C=C\C/C=C\CCCC(=O)OCC [AMR101, ethyl eicosapentaenoate]
Fasting plasma glucose Week 12 EP Median (IQR) ([1]; AMR101 2 g/d + statin): 138.0 (44.9) mg/dL | HOMA-IR Week 12 EP Median (IQR) ([1]; AMR101 2 g/d + statin): 6.4 (4.5) | HbAlc Week 12 EP Median (IQR) ([1]; AMR101 2 g/d + statin): 6.8 (1.2) % | Insulin Week 12 EP Median (IQR) ([1]; AMR101 2 g/d + statin): 18.6 (11.0) μIU/mL | Fasting plasma glucose Percent change from Baseline Median (IQR) ([1]; AMR101 2 g/d + statin): 3.6 (2.1) % | HOMA-IR Percent change from Baseline Median (IQR) ([1]; AMR101 2 g/d + statin): −0.6 (0.4) % | HbAlc Percent change from Baseline Median (IQR) ([1]; AMR101 2 g/d + statin): 0.2 (0.04) % | Insulin Percent change from Baseline Median (IQR) ([1]; AMR101 2 g/d + statin): −1.2 (0.9) % | Fasting plasma glucose Difference from placebo Estimated median ([1]; AMR101 2 g/d + statin): −0.6 (3.0) | HOMA-IR Difference from placebo Estimated median ([1]; AMR101 2 g/d + statin): −0.1 (0.5) | HbAlc Difference from placebo Estimated median ([1]; AMR101 2 g/d + statin): −0.0 (0.05) | Insulin Difference from placebo Estimated median ([1]; AMR101 2 g/d + statin): −0.1 (1.3) | Fasting plasma glucose Week 12 EP Median (IQR) ([1]; AMR101 4 g/d + statin): 141.9 (51.1) mg/dL | HOMA-IR Week 12 EP Median (IQR) ([1]; AMR101 4 g/d + statin): 6.9 (6.7) | HbAlc Week 12 EP Median (IQR) ([1]; AMR101 4 g/d + statin): 6.9 (1.1) % | Insulin Week 12 EP Median (IQR) ([1]; AMR101 4 g/d + statin): 19.0 (16.2) μIU/mL | Fasting plasma glucose Percent change from Baseline Median (IQR) ([1]; AMR101 4 g/d + statin): 8.9 (2.1) % | HOMA-IR Percent change from Baseline Median (IQR) ([1]; AMR101 4 g/d + statin): −0.1 (0.4) % | HbAlc Percent change from Baseline Median (IQR) ([1]; AMR101 4 g/d + statin): 0.3 (0.04) % | Insulin Percent change from Baseline Median (IQR) ([1]; AMR101 4 g/d + statin): −1.1 (0.9) % | Fasting plasma glucose Difference from placebo Estimated median ([1]; AMR101 4 g/d + statin): 4.7 (3.0) | HOMA-IR Difference from placebo Estimated median ([1]; AMR101 4 g/d + statin): 0.3 (0.6) | HbAlc Difference from placebo Estimated median ([1]; AMR101 4 g/d + statin): 0.1 (0.05) | Insulin Difference from placebo Estimated median ([1]; AMR101 4 g/d + statin): 0.0 (1.3) | ICAM-1, Difference from placebo, Estimated median [2, 3]: -6.0 ng/mL | IL-6, Difference from placebo, Estimated median [2, 3]: 0.1 pg/mL | PAI-1, Difference from placebo, Estimated median [2, 3]: 12.1 ng/mL | hsCRP, Difference from placebo, Estimated median [2, 3]: −6.8% | ICAM-1, Week 12 EP Median (IQR) ([2]; AMR101 2 g/d + statin): 268.5 (89.0) ng/mL | IL-6, Week 12 EP Median (IQR) ([2]; AMR101 2 g/d + statin): 2.7 (2.3) pg/mL | PAI-1, Week 12 EP Median (IQR) ([2]; AMR101 2 g/d + statin): 90.3 (67.4) ng/mL | hsCRP, Week 12 EP Median (IQR) ([2]; AMR101 2 g/d + statin): 2.5 (3.4) mg/L | ICAM-1, change from Baseline, Median (IQR) ([2]; AMR101 2 g/d + statin): 1.5 (37.0) ng/mL | IL-6, change from Baseline, Median (IQR) ([2]; AMR101 2 g/d + statin): 0.2 (1.3) pg/mL | PAI-1, change from Baseline, Median (IQR) ([2]; AMR101 2 g/d + statin): 14.6 (38.8) ng/mL | hsCRP, Median % Chg from BL (IQR) ([2]; AMR101 2 g/d + statin): 10.3 (88.6) % | ICAM-1, Difference from placebo, Estimated median [2, 4]: -6.0 ng/mL | IL-6, Difference from placebo, Estimated median [2, 4]: -0.1 pg/mL | PAI-1, Difference from placebo, Estimated median [2, 4]: 0.6 ng/mL | hsCRP, Difference from placebo, Estimated median [2, 4]: −22.0% | ICAM-1, Week 12 EP Median (IQR) ([2]; AMR101 4 g/d + statin): 270.0 (110.0) ng/mL | IL-6, Week 12 EP Median (IQR) ([2]; AMR101 4 g/d + statin): 2.6 (2.1) pg/mL | PAI-1, Week 12 EP Median (IQR) ([2]; AMR101 4 g/d + statin): 85.6 (86.3) ng/mL | hsCRP, Week 12 EP Median (IQR) ([2]; AMR101 4 g/d + statin): 2.0 (3.0) mg/L | ICAM-1, change from Baseline, Median (IQR) ([2]; AMR101 4 g/d + statin): 2.5 (40.0) ng/mL | IL-6, change from Baseline, Median (IQR) ([2]; AMR101 4 g/d + statin): 0.1 (1.8) pg/mL | PAI-1, change from Baseline, Median (IQR) ([2]; AMR101 4 g/d + statin): −3.1 (45.2) ng/mL | hsCRP, Median % Chg from BL (IQR) ([2]; AMR101 4 g/d + statin): −2.4 (62.8) %
